Test results as given in US20060069132A1, “Azolecarboxamide herbicides” (priority 2004, published 2006).

Assays:
rice [1] = test: Test B flooded paddy test; assay type: in vivo, Oryza sativa; conditions: 1000 g ai/ha, visual rating, scale 0 to 100 (0 no effect, 100 complete control), 13 to 15 days
Procedure, shortened: (§1)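 After treating 2-leaf paddy plants or 2–18 cm postemergence plants (1 to 4 leaves) with formulated chemical, researchers kept them in a greenhouse for 13–15 days. Effects were judged visually versus controls: 0 indicates none, 100 total control.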

barnyardgrass [2] = test: Test B pre-/postemergence herbicide test; assay type: in vivo, Echinochloa crus-galli; conditions: for Barnyardgrass plant response rating: postemergence, scale 0 (no effect) to 100 (complete control)
Procedure, shortened: (§2)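 Flooded paddy rice and barnyardgrass were treated at the 2-leaf stage; upland plantings received compound either on sown seed or on 1- to 4-leaf seedlings. All were kept 13–15 days in a greenhouse and scored visually, 0–100, relative to untreated plants.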

cocklebur = test: Test B pre-/postemergence herbicide test; assay type: in vivo, Xanthium strumarium; conditions: for Cocklebur plant response rating: postemergence, scale 0 (no effect) to 100 (complete control)
Procedure, shortened: as §2

pigweed = test: Test B pre-/postemergence herbicide test; assay type: in vivo, Amaranthus retroflexus; conditions: for Pigweed plant response rating: postemergence, scale 0 (no effect) to 100 (complete control)
Procedure, shortened: as §2

rice [3] = test: Test B pre-/postemergence herbicide test; assay type: in vivo, Oryza sativa; conditions: 0 = no effect, 100 = complete control, preemergence
Text: Seeds selected from barnyardgrass (Echinochloa crus-galli (L.) Beauv.), Surinam grass (Urochloa decumbens (Staph) R. D. Webster, previously named Brachiaria decumbens Stapf), cocklebur (Xanthium strumarium L.), corn (Zea mays L.), large crabgrass (Digitaria sanguinalis (L.) Scop.), giant foxtail (Setaria faberi Herim.), lambsquarters (Chenopodium album L.), morningglory (Ipomoea coccinea L.), pigweed (Amaranthus retroflexus L.), rice (Oryza sativa L.) and velvetleaf (Abutilon theophrasti Medik.) were planted and treated preemergence with test chemicals formulated in a non-phytotoxic solvent mixture which included a surfactant.
At the same time, plants selected from these crop and weed species and also blackgrass (Alopecurus myosuroides Huds.), wheat (Triticum aestivum L.) and wild oat (Avena fatua L.) were treated with postemergence applications of test chemicals formulated in the same manner. Plants ranged in height from 2 to 18 cm (1- to 4-leaf stage) for postemergence treatments. Plant species in the flooded paddy test consisted of rice (Oryza sativa L.), small flower umbrella sedge (Cyperus difformis L.), ducksalad (Heteranthera limosa (Sw.) Willd.) and barnyardgrass (Echinochloa crus-galli (L.) Beauv.) grown to the 2-leaf stage for testing. Treated plants and controls were maintained in a greenhouse for 13 to 15 days, after which time all species were compared to controls and visually evaluated. Plant response ratings, summarized in Table B, are based on a scale of 0 to 100 where 0 is no effect and 100 is complete control. A dash (-) response means no test result.

wild oat = test: Test B postemergence herbicide test; assay type: in vivo, Avena fatua; conditions: postemergence, visual rating, scale 0 (no effect) to 100 (complete control)
Procedure, shortened: (§3)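 Treated at 2-leaf (paddy) or 1–4-leaf, 2–18 cm (postemergence); greenhouse 13–15 d; visual score vs control, 0 none to 100 complete control; dash = not tested.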

Surinam grass = test: Test B pre-/postemergence herbicide test; assay type: in vivo, Urochloa decumbens; conditions: for Surinam Grass plant response rating: postemergence, scale 0 (no effect) to 100 (complete control)
Procedure, shortened: as §2

blackgrass = test: Test B postemergence herbicide test; assay type: in vivo, Alopecurus myosuroides; conditions: postemergence, visual rating, scale 0 (no effect) to 100 (complete control)
Procedure, shortened: as §1

large crabgrass = test: Test B pre-/postemergence herbicide test; assay type: in vivo, Digitaria sanguinalis; conditions: for Crabgrass, Large plant response rating: postemergence, scale 0 (no effect) to 100 (complete control)
Procedure, shortened: as §2

morningglory = test: Test B pre-/postemergence herbicide test; assay type: in vivo, Ipomoea coccinea; conditions: for Morningglory plant response rating: postemergence, scale 0 (no effect) to 100 (complete control)
Procedure, shortened: as §2

corn = test: Test B pre-/postemergence herbicide test; assay type: in vivo, Zea mays; conditions: for Corn plant response rating: postemergence, scale 0 (no effect) to 100 (complete control)
Procedure, shortened: as §2

giant foxtail = test: Test B pre-/postemergence herbicide test; assay type: in vivo, Setaria faberi; conditions: for Foxtail, Giant plant response rating: postemergence, scale 0 (no effect) to 100 (complete control)
Procedure, shortened: as §2

barnyardgrass [4] = test: Test B flooded paddy test; assay type: in vivo, Echinochloa crus-galli; conditions: 1000 g ai/ha, visual rating, scale 0 to 100 (0 no effect, 100 complete control), 13 to 15 days
Procedure, shortened: as §1

velvetleaf = test: Test B pre-/postemergence herbicide test; assay type: in vivo, Abutilon theophrasti; conditions: for Velvetleaf plant response rating: postemergence, scale 0 (no effect) to 100 (complete control)
Procedure, shortened: as §2

lambsquarters = test: Test B pre-/postemergence herbicide test; assay type: in vivo, Chenopodium album; conditions: for Lambsquarters plant response rating: postemergence, scale 0 (no effect) to 100 (complete control)
Procedure, shortened: as §2

wheat = test: Test B postemergence herbicide test; assay type: in vivo, Triticum aestivum; design: key to Wheat plant response rating: 0 = no effect, 100 = complete control; conditions: postemergence, visual rating, scale 0 (no effect) to 100 (complete control)
Procedure, shortened: as §3

ducksalad = test: Test B flooded paddy test; assay type: in vivo, Heteranthera limosa; conditions: 1000 g ai/ha, visual rating, scale 0 to 100 (0 no effect, 100 complete control), 13 to 15 days
Procedure, shortened: as §1

[5] = 125 g ai/ha, 0 = no effect, 100 = complete control, preemergence
[6] = 500 g ai/ha, visual rating, 0 = no effect, 100 = complete control, preemergence

Compound: CCc1nc(C(C)(C)C)sc1C(=O)Nc1cc(C(=O)N(CC)CC)ccc1F [Compound 230]
- Rice plant response rating (rice [1]): 60
- Barnyardgrass plant response rating (0 to 100 scale) (barnyardgrass [2]; [5]): 10
- Plant response rating, Barnyardgrass (barnyardgrass [2]; [6]): 50
- Barnyardgrass plant response rating (barnyardgrass [2]; 125 g ai/ha, visual rating): 0
- Barnyardgrass plant response rating (barnyardgrass [2]; 500 g ai/ha, visual rating): 20
- Cocklebur plant response rating (0 to 100 scale) (cocklebur; [5]): 0
- Plant response rating, Cocklebur (cocklebur; [6]): 0
- Cocklebur plant response rating (cocklebur; 125 g ai/ha, visual rating): 0
- Cocklebur plant response rating (cocklebur; 500 g ai/ha, visual rating): 10
- Pigweed plant response rating (0 to 100 scale) (pigweed; [5]): 40
- Plant response rating, Pigweed (pigweed; [6]): 80
- Pigweed plant response rating (pigweed; 125 g ai/ha, visual rating): 40
- Pigweed plant response rating (pigweed; 500 g ai/ha, visual rating): 60
- Rice plant response rating (0 to 100 scale) (rice [3]; 125 g ai/ha): 0
- Plant response rating, Rice (rice [3]; 500 g ai/ha, visual rating): 0
- Oat, Wild plant response rating (wild oat; 125 g ai/ha): 20
- Oat, Wild plant response rating (wild oat; 500 g ai/ha): 40
- Surinam Grass plant response rating (0 to 100 scale) (Surinam grass; [5]): 0
- Plant response rating, Surinam Grass (Surinam grass; [6]): 10
- Surinam Grass plant response rating (Surinam grass; 125 g ai/ha, visual rating): 10
- Surinam Grass plant response rating (Surinam grass; 500 g ai/ha, visual rating): 10
- Blackgrass plant response rating (blackgrass; 125 g ai/ha): 30
- Blackgrass plant response rating (blackgrass; 500 g ai/ha): 30
- Crabgrass, Large plant response rating (0 to 100 scale) (large crabgrass; [5]): 20
- Plant response rating, Crabgrass, Large (large crabgrass; [6]): 70
- Crabgrass, Large plant response rating (large crabgrass; 125 g ai/ha, visual rating): 10
- Crabgrass, Large plant response rating (large crabgrass; 500 g ai/ha, visual rating): 20
- Morningglory plant response rating (0 to 100 scale) (morningglory; [5]): 10
- Plant response rating, Morningglory (morningglory; [6]): 10
- Morningglory plant response rating (morningglory; 125 g ai/ha, visual rating): 20
- Morningglory plant response rating (morningglory; 500 g ai/ha, visual rating): 70
- Corn plant response rating (0 to 100 scale) (corn; [5]): 0
- Plant response rating, Corn (corn; [6]): 10
- Corn plant response rating (corn; 125 g ai/ha, visual rating): 10
- Corn plant response rating (corn; 500 g ai/ha, visual rating): 20
- Foxtail, Giant plant response rating (0 to 100 scale) (giant foxtail; [5]): 10
- Plant response rating, Foxtail, Giant (giant foxtail; [6]): 80
- Foxtail, Giant plant response rating (giant foxtail; 125 g ai/ha, visual rating): 10
- Foxtail, Giant plant response rating (giant foxtail; 500 g ai/ha, visual rating): 20
- Barnyardgrass plant response rating (barnyardgrass [4]): 50
- Velvetleaf plant response rating (0 to 100 scale) (velvetleaf; [5]): 10
- Plant response rating, Velvetleaf (velvetleaf; [6]): 30
- Velvetleaf plant response rating (velvetleaf; 125 g ai/ha, visual rating): 20
- Velvetleaf plant response rating (velvetleaf; 500 g ai/ha, visual rating): 30
- Lambsquarters plant response rating (0 to 100 scale) (lambsquarters; [5]): 20
- Plant response rating, Lambsquarters (lambsquarters; [6]): 90
- Lambsquarters plant response rating (lambsquarters; 125 g ai/ha, visual rating): 50
- Lambsquarters plant response rating (lambsquarters; 500 g ai/ha, visual rating): 60
- Wheat plant response rating (wheat; 125 g ai/ha): 10
- Wheat plant response rating (wheat; 500 g ai/ha): 20
- Ducksalad plant response rating (ducksalad): 60
